# In paper PMC9818021, “Targets, Mechanisms and Cytotoxicity of Half-Sandwich Ir(III) Complexes Are Modulated by Structural Modifications on the Benzazole Ancillary Ligand” (Cancers, 2022):
# Read-outs that look alike come from different tables or passages of the source.
# Columns and labels:
# [1] = Acid dissociation constants from absorbance vs pH; assay type: physicochemical; conditions: for pKa: free ligand; for pKa2: NH dissociation to give the N anion; for pKa1: water dissociation to give the hydroxo complex
# Experimental: The pH measurements were carried out with a Metrohm 16 DMS Titrino pH meter fitted out with a combined glass electrode with a 3 M KCl solution as a liquid junction. HClO4 and NaOH solution were used to adjust the pH.
# (§1) The UV-vis measurements were performed with a Hewlett-Packard 8453A (Agilent Technologies, Palo Alto, CA, USA) photodiode array spectrophotometer with a Peltier temperature control system. Titrations were carried out at 25 °C by adding increasing amounts of DNA solution to the iridium complex solution. The pKa values were measured by analysing the absorbance change of iridium complex solutions recorded at different pH values. The melting experiments were carried out using a DNA solution varying the CIr-complex/CDNA (CD/CP) ratio from 0 to 1, keeping CP constant and recording the absorbance spectra while heating from 25 to 90 °C at 0.3 °C/min.
# [2] = Aquation/solvolysis kinetics (UV-vis); assay type: physicochemical
# Experimental: Aquation/solvolysis. Chloride displacement was qualitatively monitored by ^1H-NMR for some of the complexes in DMSO-d6. The replacement of the chloride by a DMSO molecule was observed as some peaks shifted and some new peaks appeared corresponding to the methyl groups of the DMSO molecule. Aquation/solvolysis equilibria were studied by kinetic UV-vis measurements.
# as §1
# The slow kinetic measurements were performed with the previous spectrophotometer while the fast kinetic measurements were performed in a stopped flow Bio-Logic SFM-300 spectrophotometer with an absorbance detection system and dead time below 3 ms. The kinetic curves, obtained averaging out at least five shots, were analysed with the Jandel (AISN software, Mapleton, OR) fitting package.
# [3] = system: SW480 (colon adenocarcinoma cells); test: MTT cytotoxicity assay; assay type: cell-based, human; conditions: SW480, 48 h
# Experimental: (§2) Cell culture. Epithelial ovarian carcinoma cells (A2780) that acquired resistance to cisplatin epithelial ovarian carcinoma cells (A2780cis), colon adenocarcinoma cells (SW480) and epithelial lung adenocarcinoma cells (A549) were provided by Sigma Aldrich. A549 and SW480 cells were grown in Dulbecco′s Modified Eagle′s Medium (DMEM), supplemented with 10% Fetal Bovine Serum (FBS) and 1% penicillin, streptomycin and 1% glutamine for A549 and 1% amphotericin B for SW480. The A2780 and A2780cis were grown in RPMI 1640 supplemented with 10% Fetal Bovine Serum (FBS), 1% glutamine and 1% penicillin, streptomycin and amphotericin B. All cells were incubated in a humidified incubator at 37 °C under a 5% CO2 atmosphere and grown in 100 mm culture dishes to approximately 70–80% confluence. For subculturing, cells were detached with Trypsin-EDTA (Sigma). A549-gal were derived from A549 cultured in glucose-free medium supplemented with 10 mM galactose (Sigma) for at least 10 passes.
# (§3) Cytotoxicity. MTT Assay and IC50 estimation. The cytotoxicity of 1[C,NH-Cl], 2[C,NMe-Cl], 3[N,NH-Cl]Cl, 4[N,NMe-Cl]Cl, 5[CNH2,NH-Cl]Cl, 6[CNH2,S-Cl]Cl, 7[CO,NH-Cl] and 8[CO,S-Cl] in A2780, A2780cis, SW480 and A549 carcinoma cells was evaluated by the MTT colorimetric assay. Cells were seeded in 96-well plates at 5000 cells per well and incubated at 37 °C, 5% CO2. After 24 h, the medium was removed and replaced with fresh medium with different concentrations of the compounds under study, and they were incubated for 48 h. Final DMSO concentration was kept below 0.7% in wells. For a negative control, one sequence of cells was left untreated and for vehicle control, cells treated with DMSO were included. For cell viability experiments preincubating with NAC (N-Acetyl-L-Cysteine), the cells were pre-treated with NAC, 10 mM for 2 h before the incubation with complex 1[C,NH-Cl] for 24 h. Then, the medium was removed from the wells, and 100 µL MTT (5 mg/mL) was added. After an incubation time of 4 h, 100 μL of solubilizing detergent solution (SDS, 10% in HCL 0.01 M) was added and kept in the incubator overnight. Cell growth inhibition was detected by measuring the absorbance of each well at 595 nm using a BioTek Cytation5 microplate reader. Each test was repeated in quadruplicate in three independent experiments for each cell line. The percentage of survival cells was calculated using absorbance measurements compared with control and the IC50 estimation using Graph Pad Prism version 6.01.
# [4] = system: A549 (epithelial lung adenocarcinoma cells); test: MTT cytotoxicity assay; assay type: cell-based, human; conditions: A549, 48 h
# Experimental: as §2, §3
# [5] = system: A2780 (epithelial ovarian carcinoma cells); test: MTT cytotoxicity assay; assay type: cell-based, human; conditions: A2780, 48 h
# Experimental: as §2, §3
# [6] = system: A2780cis (ovarian, acquired resistance to cisplatin); test: MTT cytotoxicity assay; assay type: cell-based, human; conditions: A2780cis, 48 h
# Experimental: as §2, §3
# Qualitative solubility = assay type: physicochemical; conditions: 1-2 mg, solvent up to 1 mL
# Experimental: Solubility. The solubility of the complexes was qualitatively assessed. Different solvents were added drop-by-drop while shaking to a small amount of complex (around 1–2 mg) in a vial until the solvent added exceeded 1 mL. Afterwards, it was checked if the solid was or not completely dissolved and/or if the solution got coloured.
compound,measurement,setting,value
c1ccc(-c2nc3ccccc3[nH]2)cc1 [2-phenylbenzimidazole],pKa,"[1]; deprotonation of the pyridine type N atom, read-out: pKa1",5.2 ± 0.1
same,pKa,"[1]; pyrrole type N atom, read-out: pKa2",11.8 ± 0.1
"Cc1c(C)c(C)[c-](C)c1C.[OH2+][Ir]1[NH2+]c2ccccc2-c2[nH]c3ccccc3[n+]21 [5[CNH2,NH-H2O]2+]",pKa2,[1],11.30 ± 0.17
same,pKa1,[1],7.48 ± 0.04
"C[S+](C)(=O)[Ir]1[O]c2ccccc2-c2sc3ccccc3[n+]21.Cc1c(C)c(C)[c-](C)c1C [8[CO,S-DMSO]+]",kDMSO (Cl-complex to DMSO-complex),[2]; in DMSO,(3.11 ± 0.25) × 10^−4 s-1
"Cc1c(C)c(C)[c-](C)c1C.Cn1c2[n+](c3ccccc31)[Ir]([OH2+])[n+]1ccccc1-2 [4[N,NMe-H2O]2+]",pKa1,[1],7.48 ± 0.01
"Cc1c(C)c(C)[c-](C)c1C.Cn1c2[n+](c3ccccc31)[Ir]([S+](C)(C)=O)[c]1ccccc1-2 [2[C,NMe-DMSO]+]",Acid-base equilibrium,[1]; absorbance vs pH,did not exhibit any acid–base equilibrium
"C[S+](C)(=O)[Ir]1[O]c2ccccc2-c2[nH]c3ccccc3[n+]21.Cc1c(C)c(C)[c-](C)c1C [7[CO,NH-DMSO]+]",pKa2,[1],9.06 ± 0.06
"N.N.[Cl][Pt][Cl] [cisPt, cisplatin, reference compound]",IC50,[3],34 ± 1 µM
same,IC50,[4],33 ± 6 µM
same,IC50,[5],7 ± 1 µM
same,IC50,[6],60 ± 1 µM
"C[S+](C)(=O)[Ir]1[c]2ccccc2-c2[nH]c3ccccc3[n+]21.Cc1c(C)c(C)[c-](C)c1C.[Cl-] [1[C,NH-DMSO]+, [(η^5-Cp*)Ir(DMSO)(κ^2-N,C-pbim)]Cl]",Solubility in water,Qualitative solubility,soluble in dimethyl sulfoxide and water
same,pKa2,[1],8.44 ± 0.03
"Cc1c(C)c(C)[c-](C)c1C.[OH2+][Ir]1[n+]2ccccc2-c2[nH]c3ccccc3[n+]21 [3[N,NH-H2O]2+]",pKa2,[1],8.44 ± 0.06
same,pKa1,[1],6.08 ± 0.04
"Cc1c(C)c(C)[c-](C)c1C.[OH2+][Ir]1[NH2+]c2ccccc2-c2sc3ccccc3[n+]21 [6[CNH2,S-H2O]2+]",kaq (Cl-complex to H2O-complex),[2]; aqueous solution,(2.12 ± 0.01) × 10^−4 s-1
same,pKa1,[1],8.70 ± 0.04
